Test results reported in paper PMC12072072 (International Journal of Molecular Sciences, 2025).
Read-outs that look alike come from different tables or passages of the source.

How the values were obtained:
[1] = system: CHO (Chinese hamster ovary); experiment: MTT assay, CHO cells; format: cell-based; conditions: for IC50: Cricetulus griseus, CHO, MTT assay, CHO cells, value (standard deviation), read-out: IC50 [μM] (±s) CHO; for Selectivity Index (SI) CHO: IC50 of HDFs / IC50 of CHO
Description: (§1) Each medium was supplemented with 10% fetal bovine serum, 1% L-glutamine, and 1% penicillin/streptomycin solution. The cell lines were incubated at 37 °C in a humidified atmosphere containing 5% CO2. Cells were counted using the Fuchs–Rosenthal counting chamber (hemocytometer) with modifications.
(§2) The final product of this reaction gives violet formazan crystals. The number of live cells is proportional to the amount of formazan and is represented by the violet dye reagent. The details of the experiments are given, e.g., in [54].
(§3) Statistical analyses for the cytotoxic activity were carried out using the nonparametric Kruskal–Wallis H test for unpaired data and ANOVA Friedman two-way analysis of variance test for paired data. Statistical significance was tested using Dunn’s post-hoc test. The IC50 values compared to the control IC50 were calculated using GraphPad Prism v. 10.1.1. software.

[2] = system: HDFs (human dermal fibroblasts); experiment: MTT assay, HDFs (normal cells); format: cell-based; conditions: Fibroblast, value (standard deviation), read-out: IC50 [μM] (±s) HDFs
Description: as §1, §2, §3

[3] = system: SKOV-3 (human ovarian carcinoma); experiment: MTT assay, SKOV-3 cells; format: cell-based; conditions: for IC50: SKOV-3 cells, value (standard deviation), read-out: IC50 [μM] (±s) SKOV-3; for Selectivity Index (SI) SKOV-3: IC50 of HDFs / IC50 of SKOV-3
Description: as §1, §2, §3

A-549, PC-3, and SKOV-3 = experiment: MTT assay, statements over the cancer cell lines together; format: cell-based, human; conditions: for IC50: MTT assay, A-549, PC-3 and SKOV-3 together, summary of Table 3, read-out: IC50 stated over the cancer cell lines together; for Selectivity Index stated over the tested cell lines together: IC50 of HDFs / IC50 of cell line, text summary of Table 4
Description: as §1, §2

[4] = system: PC-3 (human prostate carcinoma); experiment: MTT assay, PC-3 cells; format: cell-based; conditions: for IC50: PC-3 cells, value (standard deviation), read-out: IC50 [μM] (±s) PC-3; for Selectivity Index (SI) PC-3: IC50 of HDFs / IC50 of PC-3
Description: as §1, §2, §3

[5] = system: A-549 (human lung carcinoma); experiment: MTT assay, A-549 cells; format: cell-based; conditions: for IC50: Homo sapiens, A549, MTT assay, A-549 cells, value (standard deviation), read-out: IC50 [μM] (±s) A-549; for Selectivity Index (SI) A-549: IC50 of HDFs / IC50 of A-549
Description: as §1, §2, §3

Solubility (remark) = format: physicochemical; conditions: remark among limitations, solvent not stated
[6] = system: SKOV-3 (human ovarian carcinoma); experiment: Cell Death Detection ELISA Plus, SKOV-3; format: cell-based; conditions: DNA fragmentation ELISA, sample vs negative control; tested at 0.1, 1.0 and 10.0 µg/mL, concentration of the value not stated
Description: (§4) The induction of apoptosis by tested compounds was determined with Cell Death Detection ELISA Plus from Roche Diagnostics GmbH (Mannheim, Germany).
(§5) The Cell Death Detection ELISA PLUS photometric enzyme immunoassay is used to quantitatively in vitro determination of cytoplasmic histone-associated DNA fragments (mono- and oligonucleosomes) after induced cell death. The kit contains a stop solution that allows users to terminate the substrate reaction and run the assay under defined conditions, making it suitable for high-throughput applications. This kit can be used for the relative quantification of histone-complexed DNA fragments (mono- and oligonucleosomes) out of the cytoplasm of cells after the induction of apoptosis or when released from necrotic cells. […] The antibodies used in the assay are not species-specific; therefore, the kit may be used to assay cells from various species. The details of the experiments are given in [74]. As an internal reference compound (cytostatic drug), camptothecin (topoisomerase I-inhibitor) was used in this study to induce apoptosis. The negative control is the sample without camptothecin treatment. […] Cells were counted using a Fuchs–Rosenthal counting chamber (hemocytometer) with modifications. The apoptotic index was calculated based on the enrichment of mono- and oligonucleosomes according to the following equation:apoptotic index = [{A405(sample) − A490(sample)}/{A405(negative control) − A490(negative control)}]

[7] = system: PC-3 (human prostate carcinoma); experiment: Cell Death Detection ELISA Plus, PC-3; format: cell-based; conditions: DNA fragmentation ELISA, sample vs negative control; tested at 0.1, 1.0 and 10.0 µg/mL, concentration of the value not stated
Description: as §4, §5

[8] = Homo sapiens, SK-OV-3, MTT assay

SMILES	IC50 [3, 8] [µM]	IC50 (A-549, PC-3, and SKOV-3; Homo sapiens) [µM]	IC50 ([4]; Homo sapiens, PC-3, MTT assay) [µM]	IC50 [5] [µM]	solubility (Solubility (remark))	IC50 (A-549, PC-3, and SKOV-3) [µM]	IC50 [1] [µM]	Selectivity Index (SI) CHO [1]	IC50 [2] [µM]	Selectivity Index (SI) SKOV-3 [3]	Selectivity Index stated over the tested cell lines together (A-549, PC-3, and SKOV-3)	Selectivity Index (SI) PC-3 [4]	Selectivity Index (SI) A-549 [5]	Apoptotic Index (AI) SKOV-3 [6]	Apoptotic Index (AI) PC-3 [7]	IC50 ([3]; MTT assay) [µM]	IC50 ([4]; MTT assay) [µM]
CC1(C)CC[C@@]23CC[C@@]4(C)[C@]5(C)CCC6C(C)(C)C(=O)CC[C@]6(C)C5CC(=O)[C@]4(OC2=O)C3C1 (stereo partly drawn) [Compound 7, 3,12-Dioxoolean-28-oic acid 28β→13β-olide]	> 100	> 100	> 100	66.1	poor solubility	–	> 100	–	> 100	–	–	–	–	–	–	–	–
CC1(C)CC[C@@]23CC[C@@]4(C)[C@]5(C)CCC6C(C)(C)[C@@H](O)CC[C@]6(C)C5C/C(=N\O)[C@]4(OC2=O)C3C1 (stereo partly drawn) [Compound 8, 3β-Hydroxy-12-hydroxyiminoolean-28-oic acid 28β→13β-olide]	> 100	> 100	> 100	> 100	poor solubility	–	> 100	–	> 100	–	–	–	–	–	–	–	–
CC(=O)OC1CCC2(C)C(CCC3(C)C2CC(=NO)C24OC(=O)C5(CCC(C)(C)CC52)CCC34C)C1(C)C (stereo not drawn) [Compound 6, 3β-Acetoxy-12-hydroxyiminoolean-28-oic acid 28β→13β-olide]	1.73	1 to 9	1.88	1.27	–	–	–	0.71	3.91	2.26	exceeds 2	2.08	3.08	7.22 (0.06)	7.28 (0.02)	–	–
CC1(C)CC[C@@]23CC[C@@]4(C)[C@]5(C)CCC6C(C)(C)[C@@H](O)CC[C@]6(C)C5CC(=O)[C@]4(OC2=O)C3C1 (stereo partly drawn) [Compound 5, 3β-Hydroxy-12-oxoolean-28-oic acid 28β→13β-olide]	37	24 to 38	31	38	–	–	38.2	1.35	51.8	1.40	–	1.67	1.36	–	–	–	–
CC(=O)O[C@H]1CC[C@@]2(C)C(CC[C@]3(C)C2CC(=O)[C@]24OC(=O)[C@@]5(CCC(C)(C)CC52)CC[C@@]34C)C1(C)C (stereo partly drawn) [Compound 4, 3β-Acetoxy-12-oxoolean-28-oic acid 28β→13β-olide]	22.8	24 to 38	25.9	24.7	–	–	52.7	0.79	42	1.84	~2	1.62	1.70	–	–	–	–
CC(=O)O[C@H]1CC[C@@]2(C)C(CC[C@]3(C)C2C[C@H](O)[C@]24OC(=O)[C@@]5(CCC(C)(C)CC52)CC[C@]43C)C1(C)C (stereo partly drawn) [Compound 2, 3β-Acetoxy-12α-hydroxyolean-28-oic acid 28β→13β-olide]	1.73	1 to 9	1.88	4.68	–	–	4.19	1.79	7.51	2.54	exceeds 2	2.30	1.60	4.71 (0.11)	4.76 (0.02)	2.96	3.26

Now from value to molecule, other results behind:

IC50 [3, 8] [µM]	IC50 (A-549, PC-3, and SKOV-3; Homo sapiens) [µM]	IC50 ([4]; Homo sapiens, PC-3, MTT assay) [µM]	IC50 [5] [µM]	solubility (Solubility (remark))	IC50 (A-549, PC-3, and SKOV-3) [µM]	SMILES	IC50 [1] [µM]	Selectivity Index (SI) CHO [1]	IC50 [2] [µM]	Selectivity Index (SI) SKOV-3 [3]	Selectivity Index stated over the tested cell lines together (A-549, PC-3, and SKOV-3)	Selectivity Index (SI) PC-3 [4]	Selectivity Index (SI) A-549 [5]	Apoptotic Index (AI) SKOV-3 [6]	Apoptotic Index (AI) PC-3 [7]	IC50 ([3]; MTT assay) [µM]	IC50 ([4]; MTT assay) [µM]
26.4	11 to 90	26.1	29.9	–	–	CC1(C)CC[C@@]23CC[C@]4(C)[C@@](OC2=O)(C3C1)[C@@H](Br)CC1[C@@]2(C)CC[C@H](O)C(C)(C)C2CC[C@]14C (stereo partly drawn) [Compound 9, 12α-Bromo-3β-hydroxyolean-28-oic acid 28β→13β-olide]	42	1.21	51	1.93	~2	1.95	1.71	–	–	–	–
12.1	11 to 90	12.9	15.6	–	12 to 15	CC1(C)CC[C@@]23CC[C@]4(C)[C@@](OC2=O)(C3C1)[C@@H](Br)CC1[C@@]2(C)CCC(=O)C(C)(C)C2CC[C@]14C (stereo partly drawn) [Compound 10, 12α-Bromo-3-oxoolean-28-oic acid 28β→13β-olide]	21.4	1.83	39.1	3.24	exceeds 2	3.02	2.51	5.05 (0.03)	5.82 (0.04)	–	–
6.22	–	6.27	7.88	–	< 10	C=C(C)C1CC[C@]2(C)C(C[C@H](Br)[C@]34OC(=O)[C@@]5(CCC(C)(C)CC53)CC[C@]42C)[C@@]1(C)CCC#N (stereo partly drawn) [Compound 12, 12α-Bromo-3-nitrilo-3,4-secoolean-4(23)-ene-28-oic acid 28β→13β-olide]	9.23	0.99	9.13	1.47	–	1.46	1.15	5.11 (0.01)	5.43 (0.05)	–	–
21.8	22 to 35	25.1	34.6	–	–	CC1(C)CC[C@@]23CC[C@]4(C)[C@@](OC2=O)(C3C1)[C@@H](Br)CC1[C@@]2(C)CCC(=NO)C(C)(C)C2CC[C@]14C (stereo partly drawn) [Compound 11]	55.4	0.52	28.9	1.33	–	1.15	0.83	–	–	–	–
75.8	11 to 90	73.1	89.3	poor solubility	–	CC1(C)CC[C@@]23CC[C@]4(C)[C@@](OC2=O)(C3C1)[C@@H](Br)CC1[C@@]2(C)CCC(=O)NC(C)(C)C2CC[C@]14C (stereo partly drawn) [Compound 13, 12α-bromo-3-oxo-3a-aza-A-homoolean-28-oic acid 28β→13β-olide]	> 100	–	89.4	1.18	–	1.22	1.00	–	–	–	–
68.3	11 to 90	65.9	66.2	–	–	CC1(C)CC[C@@]23CC[C@]4(C)[C@@](OC2=O)(C3C1)[C@@H](Br)CC1[C@@]2(C)CCC(=S)NC(C)(C)C2CC[C@]14C (stereo partly drawn) [Compound 14, 12α-bromo-3-thioxo-3a-aza-A-homoolean-28-oic acid 28β→13β-olide]	87	0.97	84.1	1.23	–	1.28	1.27	–	–	–	–
